ChEMBL document CHEMBL5465560, “Selectivity Literature for EUbOPEN Chemogenomic Library” (2024)

Legend:
[1] = biological target: T1, Mitogen-activated protein kinase 12 (Homo sapiens) (UniProt P53778); experiment: Selectivity interaction (KinomeScan (DiscoverX)) EUB0000229b MAPK12; conditions: at 10 µM
T1 sequence (whole entry): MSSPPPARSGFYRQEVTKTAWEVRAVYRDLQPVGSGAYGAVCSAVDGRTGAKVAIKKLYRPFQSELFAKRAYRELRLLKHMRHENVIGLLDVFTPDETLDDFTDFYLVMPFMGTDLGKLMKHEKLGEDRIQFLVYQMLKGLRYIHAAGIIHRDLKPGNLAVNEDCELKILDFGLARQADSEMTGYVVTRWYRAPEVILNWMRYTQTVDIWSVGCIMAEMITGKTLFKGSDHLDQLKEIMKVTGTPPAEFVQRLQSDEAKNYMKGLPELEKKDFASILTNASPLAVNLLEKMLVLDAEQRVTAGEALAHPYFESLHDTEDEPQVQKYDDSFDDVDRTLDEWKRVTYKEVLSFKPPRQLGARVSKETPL

[2] = biological target: T2, Inhibitor of nuclear factor kappa-B kinase subunit epsilon (Homo sapiens) (UniProt Q14164); experiment: Selectivity interaction (ActivX KiNativ screen (kinase selectivity in THP-1 cell lysates)) EUB0000639a IKBKE; format: subcellular; conditions: lysate, at 0.04 µM
T2 sequence (whole entry): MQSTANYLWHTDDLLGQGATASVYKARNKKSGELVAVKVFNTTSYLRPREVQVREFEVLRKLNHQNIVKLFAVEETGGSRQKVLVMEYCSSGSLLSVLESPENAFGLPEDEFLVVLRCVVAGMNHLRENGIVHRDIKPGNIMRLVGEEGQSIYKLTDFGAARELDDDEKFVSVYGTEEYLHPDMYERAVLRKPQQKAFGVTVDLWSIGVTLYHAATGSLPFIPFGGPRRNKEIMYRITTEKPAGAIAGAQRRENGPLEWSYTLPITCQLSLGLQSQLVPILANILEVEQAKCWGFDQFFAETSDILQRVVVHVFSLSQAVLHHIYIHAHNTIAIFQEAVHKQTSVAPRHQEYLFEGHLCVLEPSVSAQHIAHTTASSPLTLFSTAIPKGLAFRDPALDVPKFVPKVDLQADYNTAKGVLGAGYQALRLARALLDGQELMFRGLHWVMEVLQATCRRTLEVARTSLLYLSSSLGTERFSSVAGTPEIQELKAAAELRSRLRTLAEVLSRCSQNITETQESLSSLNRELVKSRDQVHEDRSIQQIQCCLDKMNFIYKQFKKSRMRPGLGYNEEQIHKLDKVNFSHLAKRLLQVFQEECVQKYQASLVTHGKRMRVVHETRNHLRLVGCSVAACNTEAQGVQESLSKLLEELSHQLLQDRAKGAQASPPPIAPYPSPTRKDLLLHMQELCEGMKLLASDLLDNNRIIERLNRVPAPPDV

[3] = biological target: Serine/threonine-protein kinase Nek4 (Homo sapiens) (UniProt P51957); experiment: Selectivity interaction (Kinase panel (Invitrogen)) EUB0000639a NEK4; conditions: at 200 nM
[4] = biological target: Serine/threonine-protein kinase PAK 3 (Homo sapiens) (UniProt O75914); experiment: Selectivity interaction (Kinase screening (Nanosyn)) EUB0000604a PAK3
[5] = biological target: T3, Interleukin-1 receptor-associated kinase 3 (Homo sapiens) (UniProt Q9Y616); experiment: Selectivity interaction (KinomeScan (DiscoverX)) EUB0000045b IRAK3
T3 sequence (whole entry): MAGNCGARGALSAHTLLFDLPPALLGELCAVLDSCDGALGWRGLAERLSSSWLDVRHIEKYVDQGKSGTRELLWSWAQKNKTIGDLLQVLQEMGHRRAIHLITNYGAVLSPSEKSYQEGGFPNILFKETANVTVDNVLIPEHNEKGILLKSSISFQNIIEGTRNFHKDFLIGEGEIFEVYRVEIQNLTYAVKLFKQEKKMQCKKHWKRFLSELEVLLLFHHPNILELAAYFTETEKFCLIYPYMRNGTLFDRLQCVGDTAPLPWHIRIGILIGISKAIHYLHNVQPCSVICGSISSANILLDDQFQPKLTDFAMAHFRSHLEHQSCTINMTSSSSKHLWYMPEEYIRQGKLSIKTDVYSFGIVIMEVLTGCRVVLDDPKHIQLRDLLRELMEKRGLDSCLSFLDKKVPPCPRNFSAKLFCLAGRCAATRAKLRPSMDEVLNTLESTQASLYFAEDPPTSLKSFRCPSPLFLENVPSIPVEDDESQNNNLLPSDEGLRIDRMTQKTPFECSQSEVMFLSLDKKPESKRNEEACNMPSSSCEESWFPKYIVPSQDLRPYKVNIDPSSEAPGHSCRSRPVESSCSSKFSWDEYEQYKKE

[6] = biological target: BDNF/NT-3 growth factors receptor (Homo sapiens) (UniProt Q16620); experiment: Selectivity interaction (KinomeScan (DiscoverX)) EUB0000618a NTRK2; conditions: at 10 µM
[7] = biological target: T4, SNF-related serine/threonine-protein kinase (Homo sapiens) (UniProt Q9NRH2); experiment: Selectivity interaction (KinomeScan (DiscoverX)) EUB0001619a SNRK; conditions: at 1 µM
T4 sequence (whole entry): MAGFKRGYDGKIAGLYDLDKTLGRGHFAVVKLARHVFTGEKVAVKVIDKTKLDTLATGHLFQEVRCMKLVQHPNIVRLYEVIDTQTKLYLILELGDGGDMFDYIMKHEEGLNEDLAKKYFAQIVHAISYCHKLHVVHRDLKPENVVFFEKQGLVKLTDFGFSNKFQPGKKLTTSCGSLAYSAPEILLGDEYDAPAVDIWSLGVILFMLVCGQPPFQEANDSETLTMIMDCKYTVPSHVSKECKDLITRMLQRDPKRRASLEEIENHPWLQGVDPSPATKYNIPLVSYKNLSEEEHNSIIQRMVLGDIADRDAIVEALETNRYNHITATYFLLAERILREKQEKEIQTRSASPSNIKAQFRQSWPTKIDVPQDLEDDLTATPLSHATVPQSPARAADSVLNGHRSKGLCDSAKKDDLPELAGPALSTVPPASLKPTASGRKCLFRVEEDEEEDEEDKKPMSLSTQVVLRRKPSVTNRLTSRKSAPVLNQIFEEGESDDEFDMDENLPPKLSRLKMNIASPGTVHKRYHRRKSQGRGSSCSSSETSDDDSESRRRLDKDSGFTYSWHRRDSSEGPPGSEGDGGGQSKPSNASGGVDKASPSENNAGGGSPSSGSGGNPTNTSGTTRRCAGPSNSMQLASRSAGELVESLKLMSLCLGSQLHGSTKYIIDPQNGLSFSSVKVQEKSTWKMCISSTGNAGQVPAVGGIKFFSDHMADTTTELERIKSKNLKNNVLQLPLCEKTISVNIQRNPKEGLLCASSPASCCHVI

[8] = biological target: Cyclin-dependent kinase 2 (Homo sapiens, UniProt P24941); experiment: Selectivity interaction (ActivX KiNativ screen (ex vivo kinase selectivity in human PBMCs)) EUB0001619a CDK2; format: cell-based; conditions: PBMC, at 1 µM
[9] = biological target: LIM domain kinase 1 (Homo sapiens) (UniProt P53667); experiment: Selectivity interaction (ProQinase) EUB0000171b LIMK1
LIM domain kinase 1 (Homo sapiens), sequence (P53667 whole entry, looked up, the tested form may be a part): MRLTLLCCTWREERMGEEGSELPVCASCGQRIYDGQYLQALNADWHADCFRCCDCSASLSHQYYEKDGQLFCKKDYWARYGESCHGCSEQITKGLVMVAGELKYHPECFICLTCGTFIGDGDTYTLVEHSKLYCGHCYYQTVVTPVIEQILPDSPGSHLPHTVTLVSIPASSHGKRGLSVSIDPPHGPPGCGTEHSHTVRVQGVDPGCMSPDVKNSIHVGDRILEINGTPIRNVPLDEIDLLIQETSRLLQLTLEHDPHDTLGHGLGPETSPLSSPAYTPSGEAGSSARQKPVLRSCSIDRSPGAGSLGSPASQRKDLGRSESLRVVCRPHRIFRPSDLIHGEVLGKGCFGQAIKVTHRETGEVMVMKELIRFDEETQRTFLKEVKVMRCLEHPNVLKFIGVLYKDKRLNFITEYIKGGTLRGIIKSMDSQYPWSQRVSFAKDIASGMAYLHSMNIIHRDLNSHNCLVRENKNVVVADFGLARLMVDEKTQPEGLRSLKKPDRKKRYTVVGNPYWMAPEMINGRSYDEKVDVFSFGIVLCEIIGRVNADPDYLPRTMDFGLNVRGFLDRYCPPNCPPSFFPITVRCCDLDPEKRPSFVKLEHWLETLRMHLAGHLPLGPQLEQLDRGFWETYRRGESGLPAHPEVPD

Serine/threonine-protein kinase Nek4 (Homo sapiens), sequence (P51957 whole entry, looked up): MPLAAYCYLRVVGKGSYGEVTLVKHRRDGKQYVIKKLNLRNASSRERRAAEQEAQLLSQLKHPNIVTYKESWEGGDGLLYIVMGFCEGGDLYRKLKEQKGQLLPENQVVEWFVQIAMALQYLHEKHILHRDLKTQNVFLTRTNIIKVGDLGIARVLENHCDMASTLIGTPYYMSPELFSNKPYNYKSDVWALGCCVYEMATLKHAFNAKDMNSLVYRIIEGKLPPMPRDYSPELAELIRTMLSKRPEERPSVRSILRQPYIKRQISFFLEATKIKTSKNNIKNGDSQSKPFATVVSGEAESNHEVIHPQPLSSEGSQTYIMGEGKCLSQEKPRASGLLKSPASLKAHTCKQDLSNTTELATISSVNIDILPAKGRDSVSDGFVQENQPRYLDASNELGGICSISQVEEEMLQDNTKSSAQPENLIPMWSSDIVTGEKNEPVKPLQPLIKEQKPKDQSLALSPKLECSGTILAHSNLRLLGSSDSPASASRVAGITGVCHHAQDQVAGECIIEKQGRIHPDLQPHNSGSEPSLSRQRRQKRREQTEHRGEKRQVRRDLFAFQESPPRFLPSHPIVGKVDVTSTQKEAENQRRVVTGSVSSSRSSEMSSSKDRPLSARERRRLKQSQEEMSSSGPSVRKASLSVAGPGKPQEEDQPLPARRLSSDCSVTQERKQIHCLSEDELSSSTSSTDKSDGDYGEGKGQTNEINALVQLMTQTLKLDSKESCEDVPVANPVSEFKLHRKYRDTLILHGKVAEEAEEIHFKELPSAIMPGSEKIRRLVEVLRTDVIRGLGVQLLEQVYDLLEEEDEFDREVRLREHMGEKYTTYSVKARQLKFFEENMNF
BDNF/NT-3 growth factors receptor (Homo sapiens), sequence (Q16620 32-822 limits assumed): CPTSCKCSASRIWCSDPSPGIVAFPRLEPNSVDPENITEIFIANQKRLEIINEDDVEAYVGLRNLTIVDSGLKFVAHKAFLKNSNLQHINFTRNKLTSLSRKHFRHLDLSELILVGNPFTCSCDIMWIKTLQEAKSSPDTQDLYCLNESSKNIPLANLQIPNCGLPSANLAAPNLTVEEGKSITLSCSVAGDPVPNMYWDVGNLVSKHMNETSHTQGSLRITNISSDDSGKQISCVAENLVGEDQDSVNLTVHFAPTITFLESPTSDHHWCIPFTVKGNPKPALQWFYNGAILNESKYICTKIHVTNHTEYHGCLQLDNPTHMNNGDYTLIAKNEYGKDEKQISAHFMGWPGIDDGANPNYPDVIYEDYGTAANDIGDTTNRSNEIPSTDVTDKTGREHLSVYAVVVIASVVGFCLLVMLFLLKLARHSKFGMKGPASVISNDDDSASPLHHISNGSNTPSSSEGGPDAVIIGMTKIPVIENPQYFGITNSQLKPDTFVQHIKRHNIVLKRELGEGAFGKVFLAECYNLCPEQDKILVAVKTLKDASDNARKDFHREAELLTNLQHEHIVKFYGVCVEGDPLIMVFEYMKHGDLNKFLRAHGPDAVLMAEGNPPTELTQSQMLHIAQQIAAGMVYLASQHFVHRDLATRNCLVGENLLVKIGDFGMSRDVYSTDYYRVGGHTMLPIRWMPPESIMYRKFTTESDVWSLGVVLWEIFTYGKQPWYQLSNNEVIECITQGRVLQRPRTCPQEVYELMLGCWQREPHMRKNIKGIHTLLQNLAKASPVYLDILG
Serine/threonine-protein kinase PAK 3 (Homo sapiens), sequence (O75914 whole entry, looked up): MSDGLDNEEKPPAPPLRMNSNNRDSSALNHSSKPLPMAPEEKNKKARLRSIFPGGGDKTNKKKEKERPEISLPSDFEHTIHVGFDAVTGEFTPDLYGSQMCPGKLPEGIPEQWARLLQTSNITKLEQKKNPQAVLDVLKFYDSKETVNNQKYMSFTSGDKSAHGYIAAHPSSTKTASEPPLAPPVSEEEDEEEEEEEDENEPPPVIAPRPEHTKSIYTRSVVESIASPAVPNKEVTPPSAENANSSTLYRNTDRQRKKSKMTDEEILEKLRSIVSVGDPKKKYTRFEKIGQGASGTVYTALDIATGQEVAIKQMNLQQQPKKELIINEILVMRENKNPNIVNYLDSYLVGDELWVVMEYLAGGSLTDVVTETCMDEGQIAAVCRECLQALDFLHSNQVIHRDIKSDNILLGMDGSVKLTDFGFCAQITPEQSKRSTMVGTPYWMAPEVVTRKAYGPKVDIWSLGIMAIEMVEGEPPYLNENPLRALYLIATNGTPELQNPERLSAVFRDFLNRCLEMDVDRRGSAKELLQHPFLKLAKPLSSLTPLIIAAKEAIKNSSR

COc1cc(N(C)c2ccnc3ccc(C(F)(F)F)cc23)cc(OC)c1OC
% binding [1]: 100%

CC[C@@H]1[C@H](F)C(=O)N[C@@H]1COc1nccc2cc(C(N)=O)c(OC)cc12 [ZIMLOVISERTIB]
% of inhibition [2]: -22.2% | % of inhibition [3]: 3.25%

Cc1cnc(Nc2ccc(F)cc2Cl)nc1-c1c[nH]c(C(=O)N[C@H](CO)c2cccc(Cl)c2)c1
% of inhibition [4]: 3%

C=CC(=O)Nc1cc(-n2c(=O)ccc3cnc4ccc(-c5ccc(NS(C)(=O)=O)cc5)cc4c32)ccc1C
% of control ([5]; at 1 µM): 73% | % of control ([5]; at 10 µM): 34%

O[C@H]1CC[C@H](Nc2ncc3nc(Nc4c(F)cc(F)cc4F)n([C@H]4CCOC4)c3n2)CC1
% of control [6]: 79%

N#Cc1cccc(-c2c[nH]c3ncnc(N4CCOCC4)c23)c1
% of control [7]: 100% | % of inhibition [8]: 8%

C=CC(=O)Nc1cccc(C(=O)Nc2ccc(Nc3cc(-c4[nH]c(SC)nc4C)ccn3)cc2)c1
% of control ([9]; at 1 µM): 72% | % of control ([9]; at 5 µM): 46%
